# Where a SMILES comes first, the peptide text is derived from it. Bridges are numbered along the chain shown (N, C = ends). [ ]: non-standard residue; d: D form. hArg = N=C(N)NCCCC[C@H](N)C(=O)O
# Assays:
# human MCH-R2 = human MCH-R2 (Homo sapiens, UniProt Q969V1); assay: Aequorin bioluminescence functional assay, MCH-2R; conditions: for MCH-2R Activation %: % Activation at 10 μM; for MCH-2R Activation % / EC50: aequorin functional assay; for selective activity at MCH-2R over MCH-1R: greater binding and/or activation at MCH-2R than at MCH-1R; for EC50: MCH-2R EC50 (nM), 293-AEQ17 cells
# Sequence of human MCH-R2 (Q969V1 whole entry): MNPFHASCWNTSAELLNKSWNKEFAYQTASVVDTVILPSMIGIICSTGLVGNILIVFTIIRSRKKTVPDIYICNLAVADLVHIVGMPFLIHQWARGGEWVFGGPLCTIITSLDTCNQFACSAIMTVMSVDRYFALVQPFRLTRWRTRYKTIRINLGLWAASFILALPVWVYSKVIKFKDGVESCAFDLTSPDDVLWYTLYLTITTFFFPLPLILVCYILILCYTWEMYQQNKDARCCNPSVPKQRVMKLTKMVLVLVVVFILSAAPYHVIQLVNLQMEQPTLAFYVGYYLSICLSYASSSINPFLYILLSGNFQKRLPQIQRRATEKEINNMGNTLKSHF
# Protocol: The aequorin bioluminescence assay can be used to measure the activity of G protein-coupled receptors that couple through the Gα protein subunit family consisting of Gq and G11. Such coupling leads to phospholipase C activation, intracellular calcium mobilization and protein kinase C activation.
# Following approximately 40 hours of expression the apo-aequorin in the cells was charged for 4 hours with coelenterazine (10 μM) under reducing conditions (300 μM reduced glutathione) in ECB buffer (140 mM NaCl, 20 mM KCl, 20 mM HEPES-NaOH [pH=7.4], 5 mM glucose, 1 mM MgCl2, 1 mM CaCl2, 0.1 mg/ml bovine serum albumin).
# The cells were harvested, washed once in ECB medium and resuspended to 500,000 cells/ml. 100 μl of cell suspension (corresponding to 5×10^4 cells) was then injected into the test plate containing MCH or MCH analogs, and the integrated light emission was recorded over 30 seconds, in 0.5 second units. 20 μL of lysis buffer (0.1% final Triton X-100 concentration) was then injected and the integrated light emission recorded over 10 seconds, in 0.5 second units. The “fractional response” values for each well were calculated by taking the ratio of the integrated response to the initial challenge to the total integrated luminescence including the Triton X-100 lysis response.
# human MCH-1R = human MCH-1R (Homo sapiens, UniProt Q99705); assay: Aequorin bioluminescence functional assay, MCH-1R; conditions: for MCH-1R Activation %: % Activation at 10 μM, aequorin functional assay
# Sequence of human MCH-1R (Q99705 whole entry): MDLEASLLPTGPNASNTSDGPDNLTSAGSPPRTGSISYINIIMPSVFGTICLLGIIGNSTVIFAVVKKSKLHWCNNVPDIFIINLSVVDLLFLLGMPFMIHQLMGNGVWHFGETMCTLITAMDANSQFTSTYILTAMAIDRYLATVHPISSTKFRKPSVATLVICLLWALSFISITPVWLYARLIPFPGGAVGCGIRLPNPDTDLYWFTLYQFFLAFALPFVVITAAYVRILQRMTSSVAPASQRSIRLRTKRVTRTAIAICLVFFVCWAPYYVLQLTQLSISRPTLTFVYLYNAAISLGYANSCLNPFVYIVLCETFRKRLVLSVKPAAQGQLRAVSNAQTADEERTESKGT
# human MCH-2R = human MCH-2R (Homo sapiens, UniProt Q969V1); assay: Radiolabeled MCH-R binding assay (SPA based), MCH-2R; conditions: MCH-2R IC50 (nM)
# Sequence of human MCH-2R (Q969V1 whole entry): as the sequence (Q969V1 whole entry) above
# Protocol: Cell membranes were prepared on ice. Each T-75 flask was rinsed twice with 10 ml of Enzyme-free Cell Dissociation Buffer (Specialty Media, Lavallette, N.J.), and the cell monolayer was detached in an additional 10 ml of Enzyme-free Cell Dissociation Buffer by incubation at room temperature for 10 minutes. Dissociated cells were centrifuged (500×g for 10 minutes at 4° C.), resuspended in 5 ml homogenization buffer (10 mM Tris-HCl, pH 7.4, 0.01 mM Pefabloc, 10 μM phosphoramidon, 40 μg/ml bacitracin) and then homogenized using a glass homogenizer (10-15 strokes). The homogenate was centrifuged for 10 minutes (1,000×g at 4° C.). The resulting supernatant was then centrifuged at 38,700×g for 15 minutes at 4° C. Pelleted membranes were resuspended (passed through 25 gauge needle 5 times), snap-frozen on liquid nitrogen, and stored at −80° C. until use.
# For the SPA-based assay, WGA-PVT beads (NEN Life Sciences Products) were resuspended in Dulbecco's PBS with calcium and magnesium (500 mg beads in 4 ml PBS). […] The suspension was mixed gently for 20 minutes, 12.3 ml of assay buffer and protease inhibitors were added (final concentration given): 2 μg/ml leupeptin, 10 μM phosphoramidon, 40 μg/ml bacitracin, 5 μg/ml aprotinin, 0.1 mM Pefabloc.
# Coated beads were kept on ice until use. […] Binding reactions were allowed to proceed at room temperature for 3 hours. Quantitation was performed by scintillation counting (TopCount device).
# [1] = Table 1, inhibition of [125I]-human MCH (Phe13, Tyr19) binding
Structure (SMILES),MCH-2R Activation % (human MCH-R2; Table 1),IC50 (human MCH-2R; [1]),MCH-2R Activation % (human MCH-R2; Table 3),MCH-1R Activation % (human MCH-1R; Table 3),IC50 (human MCH-2R; Table 3),EC50 (human MCH-R2; Table 1),MCH-1R Activation % (human MCH-1R; Table 1),further results
CCCC[C@@H]1NC(=O)CNC(=O)[C@H](CC(C)C)NC(=O)[C@H](CCSC)NC(=O)[C@@H](NC(=O)[C@H](CCCNC(=N)N)NC(C)=O)CSSC[C@@H](C(N)=O)NC(=O)[C@@H]2CCCN2C(=O)[C@H](CCCNC(=N)N)NC(=O)[C@H](Cc2ccc(O)cc2)NC(=O)[C@H](C(C)C)NC1=O [compound 26],34%,9 nM,–,–,–,–,–,selective activity at MCH-2R over MCH-1R (human MCH-R2): selectively active; EC50 (human MCH-1R): > 1000 nM
CSCC[C@@H]1NC(=O)[C@@H](NC(=O)[C@H](CCCNC(=N)N)NC(=O)[C@H](CC(C)C)NC(=O)[C@H](CCSC)NC(=O)[C@H](CC(=O)O)NC(=O)[C@H](Cc2ccccc2)NC(=O)[C@@H](N)CC(=O)O)CSSC[C@@H](C(=O)N[C@@H](Cc2c[nH]c3ccccc23)C(=O)N[C@@H](C)C(=O)N[C@H](C(=O)O)C(C)C)NC(=O)[C@@H]2CCCN2C(=O)[C@H](CCCNC(=N)N)NC(=O)[C@H](Cc2ccc(O)cc2)NC(=O)[C@H](C(C)C)NC(=O)[C@H](CCCNC(=N)N)NC(=O)CNC(=O)[C@H](CC(C)C)NC1=O [compound 55] (H-DFDMLRCMLGRVYRPCWAV-OH; disulfide 7-16; N-terminus and C-terminus assumed),–,–,97%,99%,9.5 nM,–,–,–
CSCC[C@@H]1NC(=O)[C@@H](NC(=O)[C@H](CCCNC(=N)N)NC(=O)[C@H](CC(C)C)NC(=O)[C@H](CCSC)NC(=O)[C@H](CC(=O)O)NC(=O)[C@H](Cc2ccccc2)NC(=O)[C@@H](N)CC(=O)O)CSSC[C@@H](C(=O)N[C@@H](Cc2c[nH]c3ccccc23)C(=O)N[C@@H](CCC(N)=O)C(=O)N[C@H](C(=O)O)C(C)C)NC(=O)[C@@H]2CCCN2C(=O)[C@H](CCCNC(=N)N)NC(=O)[C@H](Cc2ccc(O)cc2)NC(=O)[C@H](C(C)C)NC(=O)[C@H](CCCNC(=N)N)NC(=O)CNC(=O)[C@H](CC(C)C)NC1=O [compound 1],–,0.5 nM,100%,100%,0.9 nM,30.7 nM,–,MCH-2R Activation % (human MCH-R2; Table 2): 100%; MCH-1R Activation % (human MCH-1R; Table 2): 100%; IC50 (human MCH-2R; Table 2): 0.5 nM
CSCC[C@@H]1NC(=O)[C@@H](NC(=O)[C@H](CCCNC(=N)N)NC(C)=O)CSSC[C@@H](C(N)=O)NC(=O)[C@@H]2CCCN2C(=O)[C@H](CCCNC(=N)N)NC(=O)[C@H](Cc2ccc(O)cc2)NC(=O)[C@H](C(C)C)NC(=O)[C@H](CCCCNC(=N)N)NC(=O)[C@@H](C)NC(=O)[C@H](CC(C)C)NC1=O [compound 36] (Ac-RCML[dA][hArg]VYRPC-NH2; disulfide 2-11),74%,0.9 nM,–,–,–,19 nM,0.1%,selective activity at MCH-2R over MCH-1R (human MCH-R2): selectively active; EC50 (human MCH-1R): > 10000 nM
CSCC[C@@H]1NC(=O)[C@@H](NC(=O)[C@H](CCCNC(=N)N)NC(C)=O)CSSC[C@@H](C(N)=O)NC(=O)[C@@H]2CCCN2C(=O)[C@H](CCCNC(=N)N)NC(=O)[C@H](Cc2ccccc2)NC(=O)[C@H](C(C)C)NC(=O)[C@H](CCCNC(=N)N)NC(=O)CNC(=O)[C@H](CC(C)C)NC1=O [compound 27],94%,1.5 nM,–,–,–,12 nM,96%,–
CSCC[C@H](NC(=O)[C@H](CC(=O)O)NC(=O)[C@H](Cc1ccccc1)NC(=O)[C@@H](N)CC(=O)O)C(=O)N[C@@H](CC(C)C)C(=O)N[C@@H](CCCNC(=N)N)C(=O)N[C@H]1CSSC[C@@H](C(=O)N[C@@H](Cc2c[nH]c3ccccc23)C(=O)N[C@@H](CCC(N)=O)C(=O)N[C@H](C(=O)O)C(C)C)NC(=O)[C@@H]2CCCN2C(=O)[C@H](CCCNC(=N)N)NC(=O)[C@H](Cc2ccc(O)cc2)NC(=O)[C@H](C(C)C)NC(=O)[C@H](CCCNC(=N)N)NC(=O)CNC(=O)[C@H](CC(C)C)NC(=O)[C@H](C)NC1=O [compound 47] (H-DFDMLRCALGRVYRPCWQV-OH; disulfide 7-16; N-terminus and C-terminus assumed),–,–,94%,56%,40 nM,–,–,–
CSCC[C@@H]1NC(=O)[C@@H](NC(=O)[C@H](CCCNC(=N)N)NC(C)=O)CSSC[C@@H](C(N)=O)NC(=O)[C@@H]2CCCN2C(=O)[C@H](CCCNC(=N)N)NC(=O)[C@H](Cc2ccc(O)cc2)NC(=O)[C@H](C(C)C)NC(=O)[C@H](CCCNC(=N)N)NC(=O)[C@@H](CC(N)=O)NC(=O)[C@H](CC(C)C)NC1=O [compound 18],106%,2.3 nM,–,–,–,24 nM,39%,selective activity at MCH-2R over MCH-1R (human MCH-R2): selectively active
CSCC[C@@H]1NC(=O)[C@@H](NC(=O)[C@H](CCCNC(=N)N)NC(=O)[C@H](CC(C)C)NC(=O)[C@H](CCSC)NC(=O)[C@H](CC(=O)O)NC(=O)[C@H](Cc2ccccc2)NC(=O)[C@@H](N)CC(=O)O)CSSC[C@@H](C(=O)N[C@@H](Cc2c[nH]c3ccccc23)C(=O)N[C@@H](CCC(N)=O)C(=O)N[C@H](C(=O)O)C(C)C)NC(=O)[C@H](C)NC(=O)[C@H](CCCNC(=N)N)NC(=O)[C@H](Cc2ccc(O)cc2)NC(=O)[C@H](C(C)C)NC(=O)[C@H](CCCNC(=N)N)NC(=O)CNC(=O)[C@H](CC(C)C)NC1=O [compound 53] (H-DFDMLRCMLGRVYRACWQV-OH; disulfide 7-16; N-terminus and C-terminus assumed),–,–,96%,99%,19 nM,–,–,–
CSCC[C@@H]1NC(=O)[C@@H](NC(=O)[C@H](C)NC(=O)[C@H](CC(C)C)NC(=O)[C@H](CCSC)NC(=O)[C@H](CC(=O)O)NC(=O)[C@H](Cc2ccccc2)NC(=O)[C@@H](N)CC(=O)O)CSSC[C@@H](C(=O)N[C@@H](Cc2c[nH]c3ccccc23)C(=O)N[C@@H](CCC(N)=O)C(=O)N[C@H](C(=O)O)C(C)C)NC(=O)[C@@H]2CCCN2C(=O)[C@H](CCCNC(=N)N)NC(=O)[C@H](Cc2ccc(O)cc2)NC(=O)[C@H](C(C)C)NC(=O)[C@H](CCCNC(=N)N)NC(=O)CNC(=O)[C@H](CC(C)C)NC1=O [compound 46] (H-DFDMLACMLGRVYRPCWQV-OH; disulfide 7-16; N-terminus and C-terminus assumed),–,–,76%,81%,–,–,–,–
CSCC[C@@H]1NC(=O)[C@@H](NC(=O)[C@H](CCCNC(=N)N)NC(=O)[C@H](CC(C)C)NC(=O)[C@H](CCSC)NC(=O)[C@H](CC(=O)O)NC(=O)[C@H](Cc2ccccc2)NC(=O)[C@@H](N)CC(=O)O)CSSC[C@@H](C(=O)N[C@@H](Cc2c[nH]c3ccccc23)C(=O)N[C@@H](CCC(N)=O)C(=O)N[C@@H](C)C(=O)O)NC(=O)[C@@H]2CCCN2C(=O)[C@H](CCCNC(=N)N)NC(=O)[C@H](Cc2ccc(O)cc2)NC(=O)[C@H](C(C)C)NC(=O)[C@H](CCCNC(=N)N)NC(=O)CNC(=O)[C@H](CC(C)C)NC1=O [compound 56] (H-DFDMLRCMLGRVYRPCWQA-OH; disulfide 7-16; N-terminus and C-terminus assumed),–,–,99%,100%,–,–,–,–
CSCC[C@@H]1NC(=O)[C@@H](NC(=O)[C@H](CCCNC(=N)N)NC(C)=O)CSSC[C@@H](C(N)=O)NC(=O)[C@@H]2CCCN2C(=O)[C@H](CCCNC(=N)N)NC(=O)[C@H](Cc2ccc(O)cc2)NC(=O)[C@H](C(C)C)NC(=O)[C@H](CCCNC(=N)N)NC(=O)[C@H](CO)NC(=O)[C@H](CC(C)C)NC1=O [compound 10],95%,–,–,–,–,–,104%,–
